The text below walks through data of ChEMBL document CHEMBL1128392, “Receptor surface models. 2. Application to quantitative structure-activity relationships studies” (J Med Chem, 1995).

Broadly, the IC50 is the midpoint of a concentration-inhibition curve. High values mean weaker potency, low ones greater potency.

For the assay, the target named is Dopamine beta-hydroxylase (Homo sapiens, UniProt P09172). The experiment in a line: Inhibition of dopamine beta hydroxylase.
Sequence of Dopamine beta-hydroxylase (P09172 whole entry): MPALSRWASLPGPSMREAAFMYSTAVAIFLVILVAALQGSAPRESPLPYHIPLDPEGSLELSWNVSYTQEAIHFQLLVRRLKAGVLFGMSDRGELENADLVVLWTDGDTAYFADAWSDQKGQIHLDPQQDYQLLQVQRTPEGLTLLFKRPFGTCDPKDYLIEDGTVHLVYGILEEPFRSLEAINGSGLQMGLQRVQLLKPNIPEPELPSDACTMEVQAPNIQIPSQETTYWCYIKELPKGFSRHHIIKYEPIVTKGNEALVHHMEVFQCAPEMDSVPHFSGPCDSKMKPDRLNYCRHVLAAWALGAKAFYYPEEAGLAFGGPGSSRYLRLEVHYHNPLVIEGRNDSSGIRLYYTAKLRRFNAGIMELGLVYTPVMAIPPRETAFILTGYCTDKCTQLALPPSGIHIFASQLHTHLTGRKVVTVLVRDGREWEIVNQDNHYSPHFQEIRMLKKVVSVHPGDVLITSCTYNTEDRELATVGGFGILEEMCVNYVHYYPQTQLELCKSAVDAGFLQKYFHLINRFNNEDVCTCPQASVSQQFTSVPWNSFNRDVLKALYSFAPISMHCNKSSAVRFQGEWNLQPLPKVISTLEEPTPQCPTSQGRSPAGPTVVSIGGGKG
`Oc1ccc(Cn2cc[nH]c2=S)cc1` had an IC50 of 2.57 µM.
`S=c1[nH]ccn1Cc1ccccc1`: the concentration for half-maximal inhibition (IC50) is 33.1 µM.
`Fc1cc(F)cc(Cn2cc[nH]c2=S)c1` had an IC50 of 1.2 µM.
Under `Oc1ccc(Cn2cc[nH]c2=S)cc1C(F)(F)F` stands 120 µM; under `S=c1[nH]ccn1Cc1c(Cl)cccc1Cl`, 708 µM; under `O=[N+]([O-])c1ccc(Cn2cc[nH]c2=S)cc1`, 52.5 µM.
Under `S=c1[nH]ccn1Cc1cc(Cl)cc(Cl)c1` stands 2.4 µM; under `COc1ccccc1Cn1cc[nH]c1=S`, 74.1 µM; under `S=c1[nH]ccn1Cc1cccc(Cl)c1Cl`, 52.5 µM.
Under `COc1ccc(Cn2cc[nH]c2=S)cc1F` stands 74.1 µM; under `COc1c(F)cc(Cn2cc[nH]c2=S)cc1F`, 36.3 µM; under `S=c1[nH]ccn1Cc1c(Cl)cc(Cl)cc1Cl`, 102 µM.
In turn, `S=c1[nH]ccn1Cc1ccccc1Cl` showed a concentration for half-maximal inhibition (IC50) of 355 µM.
Under `COc1c(Cl)cc(Cn2cc[nH]c2=S)cc1Cl` stands 46.8 µM; under `S=c1[nH]ccn1Cc1ccc(Cl)cc1`, 95.5 µM; under `COc1ccc(Cn2cc[nH]c2=S)cc1OC`, 339 µM.
Under `S=c1[nH]ccn1Cc1ccc(Cl)cc1Cl` stands 17 µM; under `Oc1c(F)cc(Cn2cc[nH]c2=S)cc1F`, 0.0741 µM; under `COc1ccc(Cn2cc[nH]c2=S)cc1Br`, 83.2 µM.
Compound `S=c1[nH]ccn1Cc1cc(Cl)ccc1Cl` had an IC50 of 97.7 µM.
Consider `Oc1cccc(Cn2cc[nH]c2=S)c1`, for which the IC50 was 148 µM.
`O=[N+]([O-])c1cc(Cn2cc[nH]c2=S)ccc1O` had a 50% inhibitory concentration (IC50) of 30.9 µM.
Under `Oc1c(F)c(F)c(Cn2cc[nH]c2=S)c(F)c1F` stands 61.7 µM.
Under `COc1ccc(Cn2cc[nH]c2=S)cc1C` stands 69.2 µM.
Turning to `COc1cc(Cl)c(Cn2cc[nH]c2=S)c(Cl)c1`, half-maximal inhibition (IC50) was put at 155 µM.
Under `S=c1[nH]ccn1Cc1ccc(Br)cc1` stands 115 µM.
Turning to `Cc1cc(Cn2cc[nH]c2=S)ccc1O`, the 50% inhibitory concentration (IC50) was 49 µM.
For `COc1ccc(Cn2cc[nH]c2=S)cc1[N+](=O)[O-]`, the IC50 was 355 µM.
Under `Fc1cccc(Cn2cc[nH]c2=S)c1` stands 5.62 µM.
Under `Oc1c(Cl)cc(Cn2cc[nH]c2=S)cc1Cl` stands 0.676 µM; under `Oc1ccccc1Cn1cc[nH]c1=S`, 575 µM; under `Oc1ccc(Cn2cc[nH]c2=S)cc1F`, 1.51 µM.
Under `FC(F)(F)c1ccc(Cn2cc[nH]c2=S)cc1` stands 200 µM.
Take `Cc1ccccc1Cn1cc[nH]c1=S`: the IC50 was 339 µM.
Under `Cc1ccc(Cn2cc[nH]c2=S)cc1` stands 148 µM.
Under `COc1cccc(OC)c1Cn1cc[nH]c1=S` stands 501 µM.
Under `S=c1[nH]ccn1Cc1ccc(Cl)c(Cl)c1` stands 28.2 µM; under `Oc1ccc(Cn2cc[nH]c2=S)cc1Br`, 12 µM; under `S=c1[nH]ccn1Cc1cccc(Cl)c1`, 12 µM.
`Oc1cc(Cl)c(Cn2cc[nH]c2=S)c(Cl)c1` gave an IC50 of 75.9 µM.
`COc1ccc(Cn2cc[nH]c2=S)cc1C(F)(F)F` gave a half-maximal inhibitory concentration (IC50) of 174 µM.
Under `Fc1ccc(Cn2cc[nH]c2=S)cc1` stands 46.8 µM; under `Oc1ccc(Cn2cc[nH]c2=S)cc1O`, 2.19 µM.
Compound `Cc1cccc(C)c1Cn1cc[nH]c1=S` had an IC50 of 1000 µM.
The compound `COc1cccc(Cn2cc[nH]c2=S)c1` showed a half-maximal inhibitory concentration (IC50) of 158 µM.
Turning to `COc1ccc(Cn2cc[nH]c2=S)cc1`, the half-inhibitory concentration (IC50) was 204 µM.
